Measured values: US11377464B2, “Galactoside inhibitor of galectins” (Galecto Biotech AB, priority 2015, dated 2022)

How the values were obtained:
galectins = details: cited from earlier work
galectin-3 = galectin-3 (Homo sapiens (Human), UniProt P17931); experiment: Fluorescence anisotropy assay: compound as inhibitor of the interaction between galectin and a fluorescein tagged saccharide probe; format: binding; details: 50 nM galectin-3, 100 nM albumin for high affinity compounds
Experimental: 100 nM albumin was included as a carrier to prevent protein loss at such low concentration of galectin.

Sequence of galectin-3 (P17931 whole entry): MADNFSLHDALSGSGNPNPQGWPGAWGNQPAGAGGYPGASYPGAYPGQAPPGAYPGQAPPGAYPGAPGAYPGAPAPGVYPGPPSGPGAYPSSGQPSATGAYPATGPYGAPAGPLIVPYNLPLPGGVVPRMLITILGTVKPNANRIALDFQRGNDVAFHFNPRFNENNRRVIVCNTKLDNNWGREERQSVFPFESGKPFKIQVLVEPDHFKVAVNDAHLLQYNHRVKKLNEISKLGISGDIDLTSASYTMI

| SMILES | affinity relative to lactose (galectins) | Kd (galectin-3) [nM] |
| --- | --- | --- |
| O=C[C@H](O)[C@@H](O)[C@@H](O)[C@H](O)CO [D-galactose, D-(+)-galactose] | 50-100 times lower |  |
| O=C(NCC(F)(F)F)c1cn([C@@H]2C(O)[C@@H](Sc3ccc(Cl)c(Cl)c3)OC(CO)[C@@H]2O)nn1 (stereo in doubt) [Example 98] |  | 560 |
